Values after ≈ are worked out from the molar mass of the structure shown. Like-named read-outs stand apart in the source and are kept apart here. Marks after values point to notes of the source that are not given here.
Columns and labels:
Corynebacterium B-670 = assay: Agar diffusion assay; assay type: cell-based
Proteus vulgaris = assay: microbe, parasite or virus in culture; assay type: cell-based; conditions: for MIC: Proteus vulgaris
Proteus vulgaris RMIT = assay: NCCLS broth microdilution MIC/MBC; assay type: cell-based; conditions: for MIC: Proteus vulgaris
Epidermophyton floccosum [1] = assay: M38-P microdilution MIC/MFC; assay type: cell-based; conditions: Table 16, Dermatophytes
Staphylococcus aureus [2] = assay: Rate of kill, viable counts
[3] = system: Salmonella paratyphi M-16469; assay: Sensitivity of strains: suppression of growth; assay type: cell-based; conditions: Compound (1) 1.0%; antibiotics disc method
Shigella sonnei B-720 = assay: Agar diffusion assay; assay type: cell-based
F. chlamydosporum = assay: M38-P microdilution MIC/MFC; assay type: cell-based; conditions: Table 16, 48 h, 35° C.
Trichophyton = assay: Sensitivity of pathogenic fungi; assay type: cell-based; conditions: Inoculation 10^2
[4] = system: γ-hemolytic streptococcus B-672; assay: Sensitivity of strains: suppression of growth; assay type: cell-based; conditions: Compound (1) 1.0%; antibiotics disc method
[5] = system: Acinetobacter calcoaceticus; assay: Rate of kill, viable counts; conditions: in 6 h
Epidermophyton floccosum [6] = assay: NCCLS broth macro-dilution MIC/MFC (RPMI); assay type: cell-based; conditions: Table 10, 7 day, 30° C.
Proteus mirabilis = assay: NCCLS broth microdilution MIC/MBC; assay type: cell-based; conditions: for MIC: Proteus mirabilis
Staphylococcus aureus [7] = assay: Agar plug diffusion, zone of retardation; conditions: plug impregnated at 0.5%
Klebsiella pneumoniae = assay: NCCLS broth microdilution MIC/MBC; assay type: cell-based; conditions: for MIC: Klebsiella pneumoniae
Aspergillus fumigatus [8] = assay: microbe, parasite or virus in culture; assay type: cell-based; conditions: for MIC: Aspergillus fumigatus
[9] = system: Enterobacter aerogenes B-687; assay: Sensitivity of strains: suppression of growth; assay type: cell-based; conditions: Compound (1) 1.0%; antibiotics disc method
[10] = system: Staphylococcus aureus B-674; assay: Sensitivity of strains: suppression of growth; assay type: cell-based; conditions: Compound (1) 1.0%; antibiotics disc method
Geotrichum M-158 = assay: Sensitivity of pathogenic fungi; assay type: cell-based; conditions: Inoculation 10^5
[11] = system: Klebsiella pneumoniae strain 312; assay: Impregnated agar serial double dilutions; conditions: meat peptone agar
C. laniolis 54/6 = assay: MIC/MMC against clinical strains of Campylobacter spp.; conditions: Table 18; clinical strain isolated from humans
[12] = system: Enterococcus faecalis museum strain; assay: Impregnated agar serial double dilutions; conditions: meat peptone agar
Bacillus subtilis RMIT = assay: NCCLS broth microdilution MIC/MBC; assay type: cell-based; conditions: for MIC: Bacillus subtilis
Clostridium perfringens = assay: microbe, parasite or virus in culture; assay type: cell-based; conditions: 48 h
Acinetobacter B-677 = assay: Sensitivity of strains: suppression of growth; assay type: cell-based; conditions: Compound (1) 1.0%; antibiotics disc method
Aspergillus fumigatus [13] = assay: M38-P microdilution MIC/MFC; assay type: cell-based; conditions: Table 16, 48 h, 35° C.
[14] = system: C. guillermondii RMIT 176; assay: M38-P microdilution MIC/MFC; assay type: cell-based; conditions: Table 16, 24 h, 35° C.
Bacillus sp. B-575 = assay: Sensitivity of strains: suppression of growth; assay type: cell-based; conditions: Compound (1) 1.0%; antibiotics disc method; note: key: + sensitive strains; + moderately sensitive strains; − stable strains
Aspergillus fumigatus [15] = assay: NCCLS broth macro-dilution MIC/MFC (RPMI); assay type: cell-based; conditions: Table 10, 7 day, 30° C.
[16] = system: Salmonella paratyphi M-16469; assay: Agar diffusion assay; assay type: cell-based
Cryptococcus neoformans = assay: M38-P microdilution MIC/MFC; assay type: cell-based; conditions: Cryptococcus neoformans, Table 16, 24 h, 35° C., read-out: MIC
[17] = system: Citrobacter diversus B-678; assay: Sensitivity of strains: suppression of growth; assay type: cell-based; conditions: Compound (1) 1.0%; antibiotics disc method
[18] = before exposure, MHB, read-out: Standard MIC Initial

C/C(=C\c1ccc2c(c1)OCO2)[N+](=O)[O-] [Compound (1)]
Diameter of zone of Growth inhibition (Corynebacterium B-670; Concentration in disc 0.1%): 31# mm
Diameter of zone of Growth inhibition (Corynebacterium B-670; Concentration in disc 1.0%): 35# mm
Diameter of zone of Growth inhibition (Corynebacterium B-670; Concentration in disc 2.0%): 40# mm
MIC (Proteus vulgaris; after 12 weeks continuous exposure, read-out: Standard MIC Final): 128 µg/mL (≈ 618 µM)
MIC (Proteus vulgaris; [18]): 128 µg/mL (≈ 618 µM)
7-Day MIC Range (Proteus vulgaris; Range to Week 12, No Rising Trend): 64 to 256 µg/mL
MIC (Proteus vulgaris RMIT): 128 µg/mL (≈ 618 µM)
MIC (Proteus vulgaris RMIT; 24 h): 128 µg/mL (≈ 618 µM)
MMC (Proteus vulgaris RMIT; Table 9, 35° C., 24 hours): 256 µg/mL
MMC (Proteus vulgaris RMIT; Table 17, 2 or 3 replicates): 128 µg/mL
MIC (Epidermophyton floccosum [1]; Epidermophyton floccosum): 0.5 µg/mL (≈ 2.41 µM)
MMC (Epidermophyton floccosum [1]): 16 µg/mL
Log reduction in viable count (Staphylococcus aureus [2]; 256 μg/mL, in 6 h): 0.5 in 6 h
Log reduction in viable count (Staphylococcus aureus [2]; 512 μg/mL, in 9 h): 4 in 9 h
Suppression of Growth (+/−) [3]: +
Diameter of zone of Growth inhibition (Shigella sonnei B-720; Concentration in disc 0.1%): 30# mm
Diameter of zone of Growth inhibition (Shigella sonnei B-720; Concentration in disc 1.0%): 35# mm
Diameter of zone of Growth inhibition (Shigella sonnei B-720; Concentration in disc 2.0%): 39# mm
MMC (F. chlamydosporum): 8 µg/mL
MIC (F. chlamydosporum; read-out: MIC): 8 µg/mL (≈ 38.6 µM)
Number of microbes: Growth (Trichophyton; 0.1%): 0
Number of microbes: Retardation (Trichophyton; 0.1%): 10^7
Number of microbes: Growth (Trichophyton; 0.5%): 0
Number of microbes: Retardation (Trichophyton; 0.5%): 10^7
Number of microbes: Growth (Trichophyton; 2.0%): 0
Number of microbes: Retardation (Trichophyton; 2.0%): 10^7
Suppression of Growth (+/−) [4]: +
Log reduction in viable count ([5]; 256 μg/mL): 1 in 6 h
Log reduction in viable count ([5]; 512 μg/mL): 1 in 6 h
MIC (Epidermophyton floccosum [6]; Epidermophyton floccosum, 168 h): 0.5 µg/mL (≈ 2.41 µM)
MMC (Epidermophyton floccosum [6]): 16 µg/mL
MIC (Proteus mirabilis): 256 µg/mL (≈ 1240 µM)
MIC (Proteus mirabilis; 24 h): 256 µg/mL (≈ 1240 µM)
MMC (Proteus mirabilis; Table 9, 35° C., 24 hours): >512 µg/mL
MMC (Proteus mirabilis; Table 17, 2 or 3 replicates): >512 µg/mL
Size of zone of retardation of the growth (Staphylococcus aureus [7]): 6.5
MIC (Klebsiella pneumoniae; Table 9, 35° C., 24 hours): 512 µg/mL (≈ 2470 µM)
MIC (Klebsiella pneumoniae; Table 17, 2 or 3 replicates): 512 µg/mL (≈ 2470 µM)
MMC (Klebsiella pneumoniae; Table 9, 35° C., 24 hours): >512 µg/mL
MMC (Klebsiella pneumoniae; Table 17, 2 or 3 replicates): >512 µg/mL
MIC (Aspergillus fumigatus [8]; Table 20, […], after 12 weeks continuous exposure, read-out: MIC Final): 8 µg/mL (≈ 38.6 µM)
MIC (Aspergillus fumigatus [8]; Table 20, […], parent strain, read-out: MIC Initial): 8 µg/mL (≈ 38.6 µM)
MIC (Aspergillus fumigatus [8]; [18]): 8 µg/mL (≈ 38.6 µM)
7-Day MIC Range (Aspergillus fumigatus [8]; to Wk 5): 8-32 to Wk 5 μg/mL
Suppression of Growth (+/−) [9]: +
Suppression of Growth (+/−) [10]: +
Number of microbes: Growth (Geotrichum M-158; 0.1%): 0
Number of microbes: Retardation (Geotrichum M-158; 0.1%): 10^4
Number of microbes: Growth (Geotrichum M-158; 0.5%): 0
Number of microbes: Retardation (Geotrichum M-158; 0.5%): 10^5
Number of microbes: Growth (Geotrichum M-158; 2.0%): 0
Number of microbes: Retardation (Geotrichum M-158; 2.0%): 10^5
Minimal % Compound (1) giving complete inhibition of test culture [11]: 0.12%
MMC (C. laniolis 54/6): 2
Minimal % Compound (1) giving complete inhibition of test culture [12]: 0.015%
MIC (Bacillus subtilis RMIT; Table 9, 35° C., 24 hours): 16 µg/mL (≈ 77.2 µM)
MIC (Bacillus subtilis RMIT; Table 17, 2 or 3 replicates): 16 µg/mL (≈ 77.2 µM)
MMC (Bacillus subtilis RMIT; Table 9, 35° C., 24 hours): 16 µg/mL
MMC (Bacillus subtilis RMIT; Table 17, 2 or 3 replicates): 16 µg/mL
MIC (Clostridium perfringens; Clostridium perfringens): 16 µg/mL (≈ 77.2 µM)
MMC (Clostridium perfringens; Table 9): 32 µg/mL
Suppression of Growth (+/−) (Acinetobacter B-677): +
MIC (Aspergillus fumigatus [13]; Aspergillus fumigatus): 8 µg/mL (≈ 38.6 µM)
MMC (Aspergillus fumigatus [13]): 32 µg/mL
MMC [14]: 2 µg/mL
MIC ([14]; read-out: MIC): 2 µg/mL (≈ 9.65 µM)
Suppression of Growth (+/−) (Bacillus sp. B-575): +
MIC (Aspergillus fumigatus [15]; Aspergillus fumigatus, 168 h): 8 µg/mL (≈ 38.6 µM)
MMC (Aspergillus fumigatus [15]): 32 µg/mL
Diameter of zone of Growth inhibition ([16]; Concentration in disc 0.1%): 28# mm
Diameter of zone of Growth inhibition ([16]; Concentration in disc 1.0%): 30# mm
Diameter of zone of Growth inhibition ([16]; Concentration in disc 2.0%): 36# mm
MIC (Cryptococcus neoformans): 1 µg/mL (≈ 4.83 µM)
Suppression of Growth (+/−) [17]: +
